Results as given in US20050069531A1, “Use of hyaluronidase in the manufacture of an ophthalmic preparation for liquefying vitreous humor in the treatment of eye disorders” (priority 1995, published 2005).
Like-named read-outs stand apart in the source and are kept apart here.

Test system: eyes of rabbits
Conditions: rabbit, intravitreal
Description: Fifty-two (52) healthy rabbits of the New Zealand Cross Variety (26 male, 26 female) weighing 1.5 kg to 2.5 kg, were individually marked for identification and were housed individually in suspended cages. The animals received a commercially available pelleted rabbit feed on a daily basis, with tap water available ad libitum.
The animals were divided into thirteen groups of 4 animals each (2 male, 2 female). Two animals in each group (1 male, 1 female) were selected for pretreatment fundus photography and fluorescein angiography.
The fundus photography was performed by restraining the animals and visualizing the optic nerve, retinal arcades with fundus with a KOWA® RC-3 Fundus Camera loaded with Kodak Gold 200 ASA film.
The fluorescein angiography involved a 1.5 ml injection of 2% sterile fluorescein solution via the marginal ear vein. Approximately 30 seconds post-injection the fluorescein was visualized upon localization of the optic nerve, retinal vessels and fundus.
The following day, each animal was anesthetized by intravenous administration of a combination of 34 mg/kg of ketamine hydrochloride and 5 mg/kg xylazine. The eyelids were retracted using a lid speculum, and the eyes were disinfected with an iodine-providone wash.
The experimental treatments administered to each animal group were as follows:
The day following the injections (Day 1), the 26 animals which were subjected to the fundus photography and fluorescein angiography were observed using the same methods as for the pre-dose examination.
The eyes were then surgically removed and placed in a fixture solution of 2.5% glutaraldehyde with 0.1 M phosphate buffered saline at pH 7.37.
Alternatively, one randomly selected rabbit was euthanized by pentobarbital injection but then fixed by intracardiac injection of the glutaraldehyde solution into the left ventricle to determine the effect of the fixation procedure on the histology findings within the enucleated eyes.
On Day 7, the 13 female rabbits that had been previously photographed and angiography performed were subjected to the same observations following the methods previously described.
The remaining 26 animals were euthanized as described above 7 days after dosing. The eyes were fixed in the same manner as those which had been fixed on day 2. Also, one randomly selected rabbit was subjected to the same intracardiac glutaraldehyde fixation procedure described hereabove for the previously randomly selected animal.
The eyes of the animals treated in this example were examined grossly and microscopically for evidence of treatment-related toxicities.

## thimerosal [BSS+thimerosal]
0.0075 mg thimerosal in BSS, day 2 post-dose
  evidence of treatment-related toxicity in the eyes (gross and microscopic examination): free of toxicity
0.0075 mg thimerosal in BSS, day 7
  toxic effects observed on day 7 (FIG. 3): significant toxic effects
0.0075 mg thimerosal in BSS, day 7 post-dose
  evidence of treatment-related toxicity in the eyes (gross and microscopic examination): breakdown of the blood-retinal barrier
0.025 mg thimerosal in BSS, days 2 and 7 post-dose
  evidence of treatment-related toxicity in the eyes (gross and microscopic examination): severe treatment-related toxic effects
At the dosages tested
  toxic effects in the eyes of rabbits (conclusion): do cause toxic effects
